Test results published in patent publication US12703836B2, “Mixture of compounds with high molecular weights, obtained from sugar cane wax (Saccharum officinarum L.)” (CENTRO NACIONAL DE INVESTIGACIONES CIENTÍFICAS, priority 2021, dated 2026).

What was measured:
[1] = test system: pyramidal cells of the CA1 area of the hippocampus; experiment: Histological score of brain damage after ischemia/reperfusion; type: in vivo, Mongolian gerbils; settings: gerbils, oral HMWS 200, AcGS 132, AlcG 40, AldG 28, AcGL 200, ASA 60 mg/kg
From the text: For the evaluation of the neuroprotective effect of the mixture of high molecular weight substances, the object of the present invention, an experimental model of global cerebral ischemia by occlusion and reperfusion of the carotid arteries was used. The composition of High Molecular Weight Substances (HMWS) obtained in example 1 was subjected to a preclinical test with animals, in which its pharmacological effect was compared with the effects of pure extracts of Fatty Acids in the form of Salts (AcGS), fatty alcohols (AlcG) and high molecular weight aldehydes (AldG), which were administered in the dose equivalent to the proportion in which each one is present in 200 mg/kg of the HMWS Active Ingredient. Furthermore, the effect of HMWS was compared with the effect of pure free fatty acid (AcGL) extract administered at equal doses. Once the quarantine was over, the gerbils were distributed into 8 groups: a negative control that only received vehicle and cerebral ischemia (CI) was not induced and 7 groups with induced CI. […] All treatments were administered orally through intragastric intubation (0.5 mL/70 g body weight) 1 hour prior to induction of ischemia. […] Sections from each brain were evaluated by a light microscopy scoring system for determination of damage to the pyramidal cells of the CA1 area of the hippocampus with bilateral averages. […]

[2] = test system: plasma sulfhydryl (SH) groups; experiment: Plasma protein oxidation (sulfhydryl groups) after cerebral ischemia/reperfusion; type: in vivo, Mongolian gerbils; settings: gerbils, plasma after I/R; oral HMWS 200, AcGS 132, AlcG 40, AldG 28, AcGL 200, ASA 60 mg/kg
From the text: For the evaluation of the neuroprotective effect of the mixture of high molecular weight substances, the object of the present invention, an experimental model of global cerebral ischemia by occlusion and reperfusion of the carotid arteries was used. The composition of High Molecular Weight Substances (HMWS) obtained in example 1 was subjected to a preclinical test with animals, in which its pharmacological effect was compared with the effects of pure extracts of Fatty Acids in the form of Salts (AcGS), fatty alcohols (AlcG) and high molecular weight aldehydes (AldG), which were administered in the dose equivalent to the proportion in which each one is present in 200 mg/kg of the HMWS Active Ingredient. Furthermore, the effect of HMWS was compared with the effect of pure free fatty acid (AcGL) extract administered at equal doses. […] To determine lipid peroxidation, the formation of substances reactive to thiobarbituric acid (SRATB) was quantified (according to Ohkawa et al., 1979) in plasma, and was expressed as nmol malondialdehyde (MDA)/mg of protein. To determine protein oxidation, sulfhydryl (SH) groups were determined (technique described by Miao-Lin Hu, 1994). […] The absorbance of the supernatant was read at 412 nm. […] The protein concentration was determined by the modified Lowry method ([…], 1987).

[3] = test system: spinal cord of rabbits with Ischemia/Reperfusion (I/R); experiment: Histological score of the spinal cord after ischemia/reperfusion; type: in vivo, New Zealand rabbits; settings: oral for 10 days: HMWS 200, AcGS 132, AlcG 40, AldG 28, AcGL 200, ASA 60 (table) mg/kg
Experimental: Furthermore, the effect of HMWS was compared with that of pure extract of free fatty acids (AcGL) administered at equal doses.
The substances HMWS, AcGS, AlcG, AldG, AcGL and aspirin were prepared as suspensions in an acacia/water vehicle (1%). Once the quarantine was completed, the rabbits were distributed into 8 groups: a negative control that only received vehicle and was not induced ischemia and 7 groups with spinal cord ischemia: a positive control treated only with the vehicle, and 6 groups were treated with HMWS (200 mg/kg), AcGS (132 mg/kg), AlcG (40 mg/kg), AldG (28 mg/kg), AcGL (200 mg/kg), and aspirin (2 mg/kg) as reference substance. All treatments were administered orally via intragastric tubing (1 mL/2 kg body weight) for 10 days.
For the induction of ischemia in the spinal cord, the rabbits were anesthetized with thiopental (20 mg/kg i.v.). The abdomen was depilated, an antiseptic solution was applied, an incision was made in the ventral midline and the retroperitoneal space was penetrated. The aorta and left renal artery were dissected and exposed. The aorta was ligated by placing a clip immediately below the left renal artery for 20 minutes, after which it was removed and the reperfusion period began. […] At 4 and 24 hours of reperfusion, the neurological deficit of the animals was blindly evaluated by 2 independent observers (according to Zivin et al., 1982). […]

[4] = test system: plasma concentrations of MDA; experiment: Plasma lipid peroxidation (SRATB, MDA) after cerebral ischemia/reperfusion; type: in vivo, Mongolian gerbils; settings: gerbils, plasma after I/R; oral HMWS 200, AcGS 132, AlcG 40, AldG 28, AcGL 200, ASA 60 mg/kg
From the text: For the evaluation of the neuroprotective effect of the mixture of high molecular weight substances, the object of the present invention, an experimental model of global cerebral ischemia by occlusion and reperfusion of the carotid arteries was used. The composition of High Molecular Weight Substances (HMWS) obtained in example 1 was subjected to a preclinical test with animals, in which its pharmacological effect was compared with the effects of pure extracts of Fatty Acids in the form of Salts (AcGS), fatty alcohols (AlcG) and high molecular weight aldehydes (AldG), which were administered in the dose equivalent to the proportion in which each one is present in 200 mg/kg of the HMWS Active Ingredient. Furthermore, the effect of HMWS was compared with the effect of pure free fatty acid (AcGL) extract administered at equal doses. Once the quarantine was over, the gerbils were distributed into 8 groups: a negative control that only received vehicle and cerebral ischemia (CI) was not induced and 7 groups with induced CI. […] All treatments were administered orally through intragastric intubation (0.5 mL/70 g body weight) 1 hour prior to induction of ischemia. […] To determine lipid peroxidation, the formation of substances reactive to thiobarbituric acid (SRATB) was quantified (according to Ohkawa et al., 1979) in plasma, and was expressed as nmol malondialdehyde (MDA)/mg of protein.

CC(=O)Oc1ccccc1C(=O)O [ASA, aspirin]
Histologic Score (brain, CA1, scale 0-4) ([1]; 24 hours reperfusion, mean ± SEM, positive control 2.96 ± 0.07): 2.00 ± 0.15 | Inhibition (%) of histological score of brain damage ([1]; I/R): 32.4% | Inhibition (%) of SH groups increase [2]: 12% | Histologic Score (spinal cord, 3 = no injuries, 0 = severe) ([3]; 24 hours after reperfusion, positive control 0.00 ± 0.05): 0.9 ± 0.15 | Inhibition (%) of histological damage in the spinal cord ([3]; I/R): 30% | Inhibition (%) of MDA increase [4]: 0.0%
